Laboratory results: patent US6849576B2, “Plant-activating agent” (Kao Corporation, priority 2000, dated 2005)

How the values were obtained:
Chlorella vulgaris = assay: Reproduction of green cells: chlorella cultivation, cell count at 8th day; assay type: cell-based; details: chlorella cell number at 8th day (192 hours), relative value, control area = 100
Procedure: (§1) In case of a unicellular organism, an individual of this organism can be used itself as a green cell. […] When chlorella is used, a test substance acting as a plant-activating agent is added to an inorganic salt medium for chlorella (test area), and the number of cells (cells/ml) when cultivation is conducted for a certain period can be compared with the number of cells (cells/ml) in the non-added system cultivated under the same condition (control area), for calculation. Further, cells in the form of callus can also be used. As the callus, a liverwort (Harchantia polymorpha L.) callus may be exemplified. When a callus is used, the test substance acting as a plant-activating agent is added to e.g. a sterilized medium for calluses (test area), and the weight of callus when cultivation is conducted for a certain period can be compared with the weight of callus of the non-added system cultivated under the same condition (control area), for calculation. In any case, the concentration of the test substance in the test area is not limited but suitably from 0.1 to 1000 ppm in terms of effective components.
Herein, the substance acting as the plant-activating agent has been added in a concentration of 10 ppm in terms of effective components into a culturing solution in the test area. This substance is not added into the control area. After sterilization, the temperature of the medium is returned to a normal temperature. The number of Chlorella vulgaris which has been sub-cultivated previously is counted under a microscope using a blood cell counting chamber of Thoma, and chlorella is added to the sterilized medium so as to have a concentration of 1.0×10^5 (cells/ml). These operations are conducted in a clean bench when the sterilized condition is necessary. Cultivation is carried out in a shaking incubator rotating at 110 rpm at 23° C. under continuous illumination (with illuminance of 10 klx.) with carbon dioxide and humidity under natural conditions.
This measurement is repeated five times in each area, and the average values (P0, P1) are made as the number of chlorella after cultivation.

liverwort callus cells = assay: Reproduction of green cells: liverwort callus cultivation, fresh weight at 10th day; assay type: cell-based, liverwort (Harchantia polymorpha L.); details: liverwort callus fresh weight at 10th day (240 hours); relative value, control area = 100; concentrations (ppm) as in Table 7
Procedure: as §1
100 ml of the medium (MSK2 medium) for liverworts were placed into a 500-ml Erlenmeyer flask, and the flask was capped with a silicon cap having its ventilative property and placed into an autoclave (at a high temperature, under a high pressure, and a sterilized oven) to sterilize the medium (for 20 minutes). Herein, the substance acting as the plant-activating agent was added in a concentration shown in Table 7 into a culturing solution in the test area. After sterilization, the temperature of the medium was returned to a normal temperature. 2 ml of liverwort callus cells under a steady state, which had been sub-cultivated previously, were sucked up by a 2-ml Komagome pipette (measuring pipet) and incubated to the sterilized medium. These operations are conducted in a clean bench when sterilized condition is necessary. Cultivation is carried out in a shaking incubator rotating at 110 rpm at 23° C. under continuous illumination (with illuminance of 10 klx.) with carbon dioxide and humidity under natural conditions. Tenth day (after 240 hours) after starting the cultivation, the whole culturing solution in each area was filtrated under suction, and the fresh weight (raw weight) (g) of the callus cell was measured. This was made as the amount in reproduction of green cells, and the improved degree in reproduction of green cells was measured by the above-described formula.

[1] = concentrations (ppm) as in Table 1
[2] = concentrations (ppm) as in Table 2

Molecule	Improved degree in reproduction of green cells (Chlorella vulgaris; [1])	Improved degree in reproduction of green cells (Chlorella vulgaris; [2])	Improved degree in reproduction of green cells (liverwort callus cells)
O=C([O-])CCC(=O)[O-].[Na+].[Na+] [Comparative product 1-2, Sodium succinate, reference compound]	90		
Stearic acid diglyceride [Inventive product 2-11]		136	
Citric acid monooleyl axnide [Inventive product 1-8]	148		
Stearic acid monoglyceride [Inventive product 1-23]	140		
O=C([O-])CCC(=O)[O-].[Na+].[Na+] [Comparative product 2-2, Sodium succinate, reference compound]		92	
Cc1ncc(CO)c(CO)c1O [Inventive product 2-16, Vitamin B6]		122	
POE(1) stearyl ether [Inventive product 1-11]	160		
Vitamin B12 [Inventive product 1-19]	110		
POE(20) sorbitan oleate [Comparative product 1-1, reference compound]	85		
POE(20) sorbitan oleate [Comparative product 2-1, reference compound]		80	
CCCCCCCCCCCCCCCCCC(=O)O [Inventive product 2-1, Stearyl acid]		156	
Stearic acid diglyceride [Inventive product 1-13]	140		
Vitamin B12 [Inventive product 2-17]		118	
O=C([O-])CN(CCN(CC(=O)[O-])CC(=O)[O-])CC(=O)[O-].[Na+].[Na+].[Na+].[Na+] [Comparative product 2-3, EDTA-4Na, reference compound]		90	
Cc1ncc(CO)c(CO)c1O [Inventive product 1-18, Vitamin B6]	118		
CCCCCCCCCCCCCCCCCC(=O)OCC(CO)(CO)CO [Inventive product 5-14, Pentaerythritol monostearate]			108
O=S(=O)([O-])CCO.[Na+] [Inventive product 5-3, Sodium isethionate]			115
POE(1) stearyl ether [Inventive product 2-9]		153	
POE(20) sorbitan oleate [Comparative product 5-1, reference compound]			72
O=C([O-])CN(CCN(CC(=O)[O-])CC(=O)[O-])CC(=O)[O-].[Na+].[Na+].[Na+].[Na+] [Comparative product 1-3, EDTA-4Na, reference compound]	92		
CCCCCCCCCCCCCCCCCCOCCCCCCCCCCCCCCCCCC [Inventive product 5-9, Distearyl ether]			135
Stearic acid diglyceride [Inventive product 5-13]			126
CC(C)C[C@H](N)C(=O)O [Inventive product 5-20, L-leucine]			110
N[C@@H](CCC(=O)[O-])C(=O)[O-].[Na+].[Na+] [Inventive product 5-4, Sodium glutamate]			105
O=C([O-])CN(CCN(CC(=O)[O-])CC(=O)[O-])CC(=O)[O-].[Na+].[Na+].[Na+].[Na+] [Comparative product 5-3, EDTA-4Na, reference compound]			90
